Legend:
Type in all cases: in vivo
[1] = test system: Tobacco Budworm [Heliothis virescens (Fabricius)] eggs; experiment: Tobacco budworm eggs (TBW-E); settings: percent in solution; 2-day old eggs
How it was run: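 Mortality of dipped eggs served as read-out, recorded after untreated controls hatched and began feeding. Treatments used acetone solutions from 0.1% downward, with eggs incubated at 78° F; LC50 is expressed as percent of compound in the solution.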

[2] = test system: Black Bean Aphid [Aphis fabae (Scop.)]; experiment: Black bean aphid spray test on nasturtium (BBA), 48 hours; settings: percent of test compound in sprayed solution
Protocol: The compounds in Tables 1 and 2 above were tested for insecticidal activity using the following testing procedures. LC50 values, based on the results of these tests and calculated according to dosage-mortality curves, are expressed in Table 3.
Black Bean Aphid [Aphis fabae (Scop.)]:
Nasturtium plants (Tropaeolum sp.) approximately 5 cm tall, were transplanted into sandy loam soil in small cups and infested with 25-50 black bean aphids of mixed ages. Twenty-four hours later they were sprayed to the point of runoff with 50-50 acetone-water solutions of the test compounds. Treated plants were held in the greenhouse and mortality was recorded after 48 hours. Test concentrations ranged from 0.05% downward. The LC-50 value is expressed below in Table 3 under the heading "BBA" in terms of percent of the test compound in the sprayed solution.

[3] = test system: Housefly [Musca domestica]; experiment: Housefly contact mortality in dishes (HF), 48 hours; settings: μg of test compound per 25 female flies
How it was run: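 LC50, as μg compound per 25 female flies, comes from dosage-mortality curves with doses from 100 μg downward. Residues were made by evaporating acetone plus 0.01% peanut oil in dishes, onto which 1-2-day-old females were caged; deaths were counted after 48 hours.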

[4] = test system: Cabbage Looper [Trichoplusia ni (Hubner)]; experiment: Cabbage looper leaf dip (CL), 3-5 days; settings: percent in solution, second-instar larvae
How it was run: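 Steps: dilute compound in 50-50 acetone-water from 0.1% downward; immerse cotyledon pieces 2-3 s and dry; place in humid petri dishes with five second-instar larvae; record mortality at 3-5 days. Dosage-mortality curves yield LC50 as percent in solution.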

Structure (SMILES)	LC50 TBW E (eggs) [1]	LC50 BBA [2]	LC50 HF [3]	LC50 CL [4]
CC(C)C(=Nc1ccc(Cl)c(Cl)c1)OCc1cccc(Oc2ccc(F)cc2F)c1 [Compound 213]	> 0.1%	0.01%	> 100 µg	0.00075%
CC(C)C(=Nc1ccc(F)c(F)c1)OCc1cccc(Oc2ccc(F)cc2F)c1 [Compound 214]	0.04%	0.01%	19 µg	0.0003%
CC(C)C(=Nc1ccc(F)c(Cl)c1)OCc1cccc(Oc2cc(F)cc(F)c2)c1 [Compound 215]	> 0.1%	0.05%	75 µg	0.00075%
CC(C)C(=Nc1ccc(Cl)c(Cl)c1)OCc1cccc(Oc2ccc(F)c(F)c2)c1 [Compound 218]	0.025%	0.003%	25 µg	0.0003%
COc1ccc(Oc2cccc(COC(=Nc3ccc(F)cc3)C(C)C)c2)cc1 [Compound 220]	> 0.1%	0.03%	85 µg	0.007%
COc1ccc(Oc2cccc(COC(=Nc3ccc(F)c(Cl)c3)C(C)C)c2)cc1 [Compound 221]	> 0.1%	0.01%	62 µg	0.0027%
CC(C)C(=Nc1ccc(C#N)c(F)c1)OCc1cccc(Oc2ccc(F)cc2)c1 [Compound 222]	> 0.1%	0.01%	32 µg	0.0015%
COc1ccc(Oc2cccc(COC(=Nc3ccc(Cl)c(Cl)c3)C(C)C)c2)cc1 [Compound 223]	> 0.1%	0.003%	43 µg	0.008%
CC(C)(Cl)C(=Nc1ccc(F)c(Cl)c1)OCc1cccc(Oc2ccc(F)cc2)c1 [Compound 224]	> 0.1%	0.05%	> 100 µg	0.001%
CC(C)C(=Nc1ccc(C#N)cc1)OCc1cccc(Oc2ccc(F)cc2)c1 [Compound 227]	0.1%	0.01%	10 µg	0.0015%
CC(C)C(=Nc1cccc(Br)c1)OCc1cccc(Oc2ccc(F)cc2)c1 [Compound 229]	> 0.1%	0.006%	20 µg	0.0005%
Cc1ccc(Oc2cccc(COC(=Nc3ccc(F)cc3)C(C)C)c2)cc1 [Compound 231]	> 0.1%	0.01%	> 100 µg	0.003%
CC(C)C(=Nc1c(F)c(F)c(F)c(F)c1F)OCc1cccc(Oc2ccc(F)cc2F)c1 [Compound 232]	> 0.1%	> 0.05%	> 100 µg	0.004%
CC(C)C(=Nc1ccc(C#N)c(F)c1)OCc1cccc(Oc2ccccc2)c1 [Compound 233]	0.09%	0.01%	10 µg	0.0017%
CC(C)C(=Nc1ccc(C(C)(C)C)cc1)OCc1cccc(Oc2ccc(F)cc2)c1 [Compound 235]	> 0.1%	0.01%	> 100 µg	0.004%
Cc1cc(N=C(OCc2cccc(Oc3ccc(F)cc3)c2)C(C)C)ccc1F [Compound 236]	0.06%	0.003%	7 µg	0.0018%
CC(C)C(=Nc1ccc(Cl)cc1)OCc1cccc(Oc2ccc(Br)cc2)c1 [Compound 237]	0.075%	0.01%	50 µg	0.0006%
CC(C)C(=Nc1ccc2c(c1)OC(C)(C)O2)OCc1cccc(Oc2ccc(Cl)cc2)c1 [Compound 241]	> 0.1%	< 0.05%	> 100 µg	0.0004%
CC(C)C(=Nc1ccc2c(c1)CCO2)OCc1cccc(Oc2ccccc2)c1 [Compound 243]	> 0.1%	0.01%	9 µg	0.005%
CC(C)C(=Nc1ccc2c(c1)OCO2)OCc1cccc(Oc2ccc(C(F)(F)F)cc2)c1 [Compound 246]	> 0.1%	> 0.05%	60 µg	0.004%

Structure (SMILES)	LC50 TBW E (eggs) [1]	LC50 BBA [2]	LC50 HF [3]	LC50 CL [4]
CC(C)C(=Nc1ccc(F)c(Cl)c1)OCc1cccc(Oc2ccc(C(F)(F)F)cc2)c1 [Compound 247]	> 0.1%	> 0.05%	> 100 µg	0.009%
COc1cc(N=C(OCc2cccc(Oc3ccccc3)c2)C(C)C)cc(OC)c1OC [Compound 248]	> 0.1%	> 0.05%	40 µg	0.02%
Cc1cccc(N=C(OCc2cccc(Oc3ccccc3)c2)C(C)C)c1C [Compound 249]	0.035%	0.0003%	36 µg	0.0025%
Cc1ccc(C)c(N=C(OCc2cccc(Oc3ccccc3)c2)C(C)C)c1 [Compound 250]	0.038%	0.0006%	38 µg	0.004%
CC(C)C(=Nc1ccc(Br)c(Br)c1)OCc1cccc(Oc2ccc(F)cc2)c1 [Compound 251]	0.06%	0.001%	25 µg	0.0005%
CC(C)C(=Nc1ccc(Br)c(Br)c1)OCc1cccc(Oc2ccccc2)c1 [Compound 252]	0.04%	0.002%	34 µg	0.0035%
CC(C)C(=Nc1cccc(Cl)c1)OCc1cccc(Oc2ccc(Br)cc2)c1 [Compound 260]	> 0.1%	0.006%	22 µg	0.00075%
CCC(C)C(=Nc1ccc(F)c(Cl)c1)OCc1ccc(F)c(Oc2ccccc2)c1 (stereo not shown) [Compound 261]	0.05%	0.002%	24 µg	0.001%
Cc1ccc(Cl)cc1N=C(OCc1cccc(Oc2ccccc2)c1)C(C)C [Compound 263]	> 0.1%	> 0.05%	> 100 µg	0.05%
COc1ccc(Cl)cc1N=C(OCc1cccc(Oc2ccccc2)c1)C(C)C [Compound 264]	> 0.1%	> 0.05%	> 100 µg	0.03%
CC(C)C(=Nc1ccc(F)cc1)OCc1cccc(Oc2ccc(F)c(F)c2)c1 [Compound 265]	0.07%	> 0.05%	10 µg	0.00025%
CC(C)C(=Nc1cccc(SC(F)(F)F)c1)OCc1cccc(Oc2ccc(F)cc2)c1 [Compound 272]	> 0.1%	> 0.05%	> 100 µg	0.0024%
CC(C)C(=Nc1ccc2c(c1)OCO2)OCc1cc(Oc2ccc(F)cc2)ccc1Cl [Compound 274]	> 0.1%	> 0.05%	> 100 µg	0.1%
CC(C)C(=Nc1ccc(F)c(Cl)c1)OCc1cc(F)cc(Oc2ccc(F)cc2)c1 [Compound 327]	> 0.1%	> 0.05%	> 100 µg	0.005%
CC(C)CC(=Nc1ccc(C(C)C)cc1)OCc1cccc(Oc2ccc(F)cc2)c1 [Compound 329]	> 0.1%	> 0.05%	7 µg	0.033%
CC(C)C(=Nc1ccc(F)c(Cl)c1)OCc1cccc(Oc2ccc(I)cc2)c1 [Compound 447]	> 0.1%	> 0.05%	33 µg	0.0009%
CC(C)C(=Nc1ccc(F)c(Cl)c1)OCc1ccc(Cl)c(Oc2ccc(F)cc2)c1 [Compound 448]	0.03%	> 0.05%	16 µg	0.003%
Fc1c(F)c(F)c(COC(=Nc2cccc(Cl)c2Cl)C(Cl)Cl)c(F)c1F [Compound 454]	> 0.1%	> 0.05%	> 100 µg	0.03%
Cc1c(COC(=Nc2ccc(Cl)cc2)C(C)C)cccc1-c1ccccc1 [Compound 455]	> 0.1%	0.01%	> 100 µg	0.0025%
Cc1c(COC(=Nc2ccc(F)cc2)C(C)C)cccc1-c1ccccc1 [Compound 458]	> 0.05%	> 0.05%	100 µg	0.007%
